Experiments:
[1] = Stability test: HPLC relative purity of peptide dissolved in buffer, by pH and temperature; type: physicochemical
Procedure: For Example 1 and Comparative Example 1, stability tests according to pH for each temperature were performed.
Stability tests for each peptide were performed by liquid chromatography purity analysis for each temperature and each pH according to analysis timing (initial, 24 hours, 130 hours). […] Samples were analyzed by injecting 20 ul of each sample with an auto-sample injector, and the analysis column was Inspire C18 (4.6×250 mm, […], 12 nm) manufactured by Dikma. The analysis temperature was 40° C., and a UV wavelength of 215 nm was used.
On the basis of the HPLC analysis results, relative purity was calculated for Comparative Example 1 and Example 1 for each storage condition. The relative purity is the percentage of measured purity changing according to the storage period, with the initial purity being set to 100% for each sample. FIGS. 1 and 2 are graphs showing the results of stability tests for Example and Comparative Example stored at a temperature of 25° C., in which FIG. 1 is a graph of a test result for 24 hours of storage, and FIG. 2 is a graph of a test result for 130 hours of storage. FIGS. 3 and 4 are graphs showing the results of stability tests for Example and Comparative Example stored at 40° C., in which FIG. 3 is a graph of a test result for 24 hours of storage, and FIG. 4 is a graph of a test result for 130 hours of storage. In each graph, the x-axis represents the test group by pH and the y-axis represents the relative purity […].

MDA-MB-231 [2] = assay: MDA-MB-231 xenograft in BalB/c nude mouse: survival rate; type: in vivo; conditions: 100 mg/kg subcutaneously 3 times weekly, co-administered with paclitaxel 20 mg/kg once weekly
Procedure: To investigate survival rates of the paclitaxel-only administration group and the group co-administered with paclitaxel and the peptide of Example 1, experiments described below were performed. 5×10^6 cells/head of the human triple negative breast cancer cell line MDA-MB-231 were mixed with Matrigel and PBS (1:1). 100 ul of the mixture was injected into the right third fat pad of 7-week-old female BalB/c nude mouse. After the transplantation, drug administration started from an average tumor size of 70 mm^3. Paclitaxel 20 mg/kg was administered once weekly, and the peptide 100 mg/kg of Example 1 was administered subcutaneously 3 times weekly at 48-hour intervals, 48 hours after the paclitaxel administration. Each test group was administered for 12 weeks and animal survival was observed daily. FIG. 10 is a graph illustrating survival rates over time after sample administration in animal experimentation. In FIG. 10, the x-axis represents the elapsed time (days) after administration and the y-axis represents survival rates (%). […] In the case of the group co-administered with the peptide of Example 1, the first deceased mouse occurred on Day 60 of administration.

[3] = test system: PC3 cells co-cultured with NK92 cells; assay: PC3/NK92 co-culture: Western blot of LC3II and cleaved PARP; type: cell-based, human; conditions: 300 uM with 10 μg/ml anti-PD-L1
Procedure: In addition, the expression of LC3II, which is an autophagy marker, and the expression of cleaved PARP, which is a cell death marker, were determined by a Western blot test. 1×10^6 PC3 cells were seeded in 6 wells and stabilized by culturing overnight, and the PC3 cells were treated with 10 μg/ml of the anti-PD-L1 and 300 uM of the peptide of Example 1 for each condition while the same number of NK92 cells were additionally seeded. After a predetermined period of treatment, the NK92 cells were removed by washing, and proteins were isolated from the tumor cells to determine LC3II (12 h) and PARP (24 h) expression changes. The expression amounts of each marker were calculated as proportions relative to the control. FIG. 13 is a graph showing the amount of cleaved PARP expression compared to PARP for each test group in the anticancer effect evaluation test in which the x-axis represents test groups and the y-axis represents the amount (%) of cleaved PARP expression compared to the PARP. FIG. 14 is a graph showing the amount of LC3II expression compared to actin for each test group in an anticancer effect evaluation test, in which the x-axis represents test groups, and the y-axis represents the amount (%) of LC3II expression compared to actin in the test group.

MDA-MB-231 [4] = assay: MDA-MB-231 cell viability (CCK-8) in NK92 co-culture with anti-PD-L1; type: cell-based, human; conditions: 300 uM with 10 ug/ml anti-PD-L1, 24/48/72 hours of co-culturing
Procedure: The experiment described below was performed to evaluate the tumor cell proliferation inhibitory effect of the combination treatment of the peptide of Example 1 and the anti-PD-L1, which is an immune checkpoint inhibitor. First, 5×10^3 cells of a human prostate cancer cell line PC3, 5×10^3 cells of a human lung cancer cell line A549 (Korean Cell Line Bank), and 1×10^4 cells of a human triple negative breast cancer cell line MDA-MB-231 (ATCC) were seeded in 96 wells and stabilized by culturing overnight. Then, the seeded cells were treated with 10 ug/ml of the anti-PD-L1 and 300 uM of the peptide of Example 1, for each condition while NK92 cells for 5×10^3 cells of each of the PC3 cell line and the MDA-MB-231 cell line and 2.5×10^3 cells of the A549 cell line were additionally seeded. After 24/48/72 hours of co-culturing (for PC3 and MDA-MB-231) and 24/48 hours of co-culturing (for A549), the NK92 cells were removed by washing, and the cancer cell viability was measured by CCK-8 addition. FIG. 15 is a graph illustrating the changes in PC3 cell viability over culturing time for each test group in an anticancer effect evaluation test. In FIG. 15, the x-axis represents culturing time and the y-axis represents cell viability (%). FIG. 16 is a graph illustrating the changes in A549 cell viability over culturing time for each test group in an anticancer effect evaluation test. […]

Substance: Ac-QLHLD-OH [Example 1, acetyl-QLHLD]
- Stability (summary in words) ([1]; liquid state, pH 2-9, 25 and 40° C., up to 130 hours): extremely stable regardless of storage conditions
- Relative purity ([1]; pH 2, 25 ± 2° C., RH 60 ± 5%, storage 0 hours (initial set to 100%)): 100.0%
- Relative purity ([1]; pH 2, 25 ± 2° C., RH 60 ± 5%, storage 24 hours): 99.7%
- Relative purity ([1]; pH 2, 25 ± 2° C., RH 60 ± 5%, storage 130 hours): 99.9%
- Relative purity ([1]; pH 2, 40 ± 2° C., RH 75 ± 5%, storage 0 hours (initial set to 100%)): 100.0%
- Relative purity ([1]; pH 2, 40 ± 2° C., RH 75 ± 5%, storage 24 hours): 99.4%
- Relative purity ([1]; pH 2, 40 ± 2° C., RH 75 ± 5%, storage 130 hours): 95.8%
- Relative purity ([1]; pH 5, 25 ± 2° C., RH 60 ± 5%, storage 0 hours (initial set to 100%)): 100.0%
- Relative purity ([1]; pH 5, 25 ± 2° C., RH 60 ± 5%, storage 24 hours): 100.0%
- Relative purity ([1]; pH 5, 25 ± 2° C., RH 60 ± 5%, storage 130 hours): 100.0%
- Relative purity ([1]; pH 5, 40 ± 2° C., RH 75 ± 5%, storage 0 hours (initial set to 100%)): 100.0%
- Relative purity ([1]; pH 5, 40 ± 2° C., RH 75 ± 5%, storage 24 hours): 100.0%
- Relative purity ([1]; pH 5, 40 ± 2° C., RH 75 ± 5%, storage 130 hours): 100.0%
- Relative purity ([1]; pH 7, 25 ± 2° C., RH 60 ± 5%, storage 0 hours (initial set to 100%)): 100.0%
- Relative purity ([1]; pH 7, 25 ± 2° C., RH 60 ± 5%, storage 24 hours): 100.0%
- Relative purity ([1]; pH 7, 25 ± 2° C., RH 60 ± 5%, storage 130 hours): 100.0%
- Relative purity ([1]; pH 7, 40 ± 2° C., RH 75 ± 5%, storage 0 hours (initial set to 100%)): 100.0%
- Relative purity ([1]; pH 7, 40 ± 2° C., RH 75 ± 5%, storage 24 hours): 100.0%
- Relative purity ([1]; pH 7, 40 ± 2° C., RH 75 ± 5%, storage 130 hours): 100.0%
- Relative purity ([1]; pH 9, 25 ± 2° C., RH 60 ± 5%, storage 0 hours (initial set to 100%)): 100.0%
- Relative purity ([1]; pH 9, 25 ± 2° C., RH 60 ± 5%, storage 24 hours): 100.0%
- Relative purity ([1]; pH 9, 25 ± 2° C., RH 60 ± 5%, storage 130 hours): 100.0%
- Relative purity ([1]; pH 9, 40 ± 2° C., RH 75 ± 5%, storage 0 hours (initial set to 100%)): 100.0%
- Relative purity ([1]; pH 9, 40 ± 2° C., RH 75 ± 5%, storage 24 hours): 99.9%
- Relative purity ([1]; pH 9, 40 ± 2° C., RH 75 ± 5%, storage 130 hours): 99.8%
- Day of administration on which the first deceased mouse occurred (MDA-MB-231 [2]): 60 days
- LC3II expression compared to the group treated with only anti-PD-L1 ([3]; 12 h, P<0.001): significantly decreased
- Cleaved PARP expression compared to the group treated with only anti-PD-L1 ([3]; 24 h, P<0.05): significantly increased
- Cancer cell viability compared to the group treated with only anti-PD-L1 (MDA-MB-231 [4]): significant decrease in cancer cell viability

Source: US20250059232A1, “PENTAPEPTIDE AND USE THEREOF” (ENSOL BIOSCIENCES INC., priority 2021, published 2025)
